Consider one compound from patent US5498624A, “Selected pyrazolyl derivatives” (Monsanto Company, priority 1995, dated 1996).

In experiment [1] the test system is Erysiphe graminis f. sp. tritici. The experiment is described as follows: Wheat Powdery Mildew Foliar Curative Treatment (WPM Cur). The experiment is classed as in vivo. The conditions noted are these: 20 ppm foliar curative, inoculation 48 hours prior to application. As for the experimental part: A) Pathogen/Inoculum Production follow as per Example 2. (B) Host Propagation, (C) Compound Preparation and (D) Compound Application follow as per Example 1.
E) Inoculation/Incubation--Inoculation is accomplished as per Example 1, 48 hours prior to compound application. The incubation period is temporarily interrupted for chemical treatment, the plants are allowed to dry and then returned to the incubation chamber.
(G) Evaluation and (H) Data follow as per Example 1. The percent protection values for the compounds of the present invention are as set out in the Table below.

The subject of the next experiment is Septoria nodorum. Nature of the experiment: Wheat Glume Blotch Foliar Assay, curative (WGB Cur). The experiment is classed as in vivo. To be noted: application two days post-inoculation, * = averaged value. As for the experimental part:
A) Host Propagation--Winter wheat plants, cv. Caldwell, are grown in 5.7 cm^2 pots, three per pot, and maintained in a growth chamber set at 20° C., 80% RH with a 12 hour photoperiod.
B) Compound Preparation--A 1.0% stock solution of each of the compounds of the present invention is first prepared utilizing an appropriate solvent such as acetone, water or DMSO. This stock is then used to prepare the final spray solution which contains the compound at the desired dosage, eg 100 ppm and 20 ppm, acetone at 20% v/v, Tween®20 at .05% w/v, and water at about 80%. Commercial standard used is tebuconazole at equivalent rates.
C) Compound Application, Seedlings are sprayed at the two-leaf stage (GS 12) using a DeVilbiss Model 152 hand operated sprayer set at 15-20 psi. Six ml of the test solution per treatment are applied to three pots. In the protectant assay (EXAMPLE 8), the compound application is made two days pre-inoculation. In the curative assay (EXAMPLE 9), the compound is applied during a brief interruption of the disease incubation period two days post-inoculation. […]
E) Test Evaluation--Eight to ten days after removal from the high humidity chamber, or twelve to fourteen days after inoculation, treatments are evaluated by visually estimating the percentage of the leaf area (on the first leaf) covered with lesions. […] Percent disease, as well as percent control values are calculated. […]

As to `C[C@H]1CCC[C@H](c2ccccc2NC(=O)c2cn(C)nc2C(F)F)C1` (relative stereo) [Number 3, 1H-pyrazole-4-carboxamide, 3-(difluoromethyl)-1-methyl-N-[2-(3-methylcyclohexyl)phenyl]-, trans-], the “WPM Cur percent disease control” value in experiment [1] was determined as 89%. Besides, the “WGB Cur percent control” value in the experiment with Septoria nodorum (20 ppm) was determined as 62%; with Septoria nodorum (100 ppm) it was 67%.
